In brackets after ≈: the same amount, converted by molar mass. Read-outs that look alike come from different tables or passages of the source.
Columns and labels:
[1] = system: Listeria monocytogenes; settings: for colony formation of bacterial ghosts plated on BHI agar media: MIC
Experimental: Specifically, a BHI liquid medium was inoculated with Listeria, and incubated for 72 hours. After incubation, centrifugation was performed at 10,000 g for 10 minutes to obtain the cultured Listeria. […] Listeria was obtained at 15, 30, 45, 60 and 90 minutes after the beginning of culture and the lysis rate was measured.

[2] = system: Listeria monocytogenes; test: microbe, parasite or virus in culture; settings: 18 h, read-out: minimum inhibitory concentration (MIC)
Experimental: (§1) Specifically, Listeria monocytogenes, a gram-positive bacterium, was cultured in a brain-heart infusion (BHI) medium at 7° C. and 200 rpm under shaking conditions overnight, and then the degree of bacterial growth was determined by measuring optical density at 600 nm using a Biochrom Libra S22 spectrophotometer.

[3] = system: Listeria monocytogenes; settings: 18 hours
[4] = system: Listeria monocytogenes; settings: BHI liquid medium, 10^6 CFU/ml, 37° C., 18 hours, optical density at 600 nm
Experimental: as §1

[5] = treated with 6.25 mg/ml (MIC), plated without dilution, 37° C.

SMILES | colony formation of bacterial ghosts plated on BHI agar media ([1]; ghosts prepared from 15 minutes after treatment) | lysis rate of gram-positive bacteria ([1]; at about 15 minutes after the MIC has been applied) [%] | MIC [2] [µg/mL] | colony formation on BHI agar medium ([3]; treated with 3.125 mg/ml, diluted to a dilution factor of 1/10, 37° C.) | colony formation on BHI agar medium [3, 5] | minimum inhibitory concentration (MIC) [4] [µg/mL] | time to formation of bacterial ghosts after treatment ([1]; MIC 6.25 mg/ml, 37° C., 10^6 CFU/ml Listeria in PBS) | colony formation of bacterial ghosts plated on BHI agar media ([1]; ghosts prepared from 10 minutes after treatment) | colony formation on BHI agar medium ([3]; treated with 3.125 mg/ml, plated without dilution, 37° C.)
Cl [hydrochloric acid] | colonies were not formed | 100 | 6250 (≈ 171 mM) | tens of colonies were also formed | no viable colony was formed | – | – | – | –
[Na+].[OH-] [sodium hydroxide] | – | – | – | – | no viable colony was formed | 6250 | about 10 minutes | colonies were not formed | thousands of colonies were formed
